System: NOMO1
Experiment: cell viability relative to DMSO control; higher = less cytotoxic
Conditions: 48 h
Summary of the method: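 Viability, reported as a per-plate percentage of DMSO wells with cell-free wells as background, came from CellTiter-Glo One luminescence. Reading took place after 48 h at 37°C. Before that, NOMO1 or SEM (500 cells/well) or P12-Ichikawa (1000 cells/well) leukemia cells, adapted for at least four passages in each medium, were seeded in 1536-well plates (5 μl) and pin-dosed with library compounds in DMSO, 47 μM to 0.79 nM over 11 threefold points.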

[1] = RPMI 5 mM glucose + 10% FBS, 0.000781 µM
[2] = RPMI 5 mM glucose + 10% FBS, 0.00234 µM
[3] = RPMI 5 mM glucose + 10% FBS, 0.00702 µM
[4] = RPMI 5 mM glucose + 10% FBS, 0.0211 µM
[5] = RPMI 5 mM glucose + 10% FBS, 0.0632 µM
[6] = RPMI 5 mM glucose + 10% FBS, 0.19 µM
[7] = RPMI 5 mM glucose + 10% FBS, 0.569 µM
[8] = RPMI 5 mM glucose + 10% FBS, 1.71 µM
[9] = RPMI 5 mM glucose + 10% FBS, 5.12 µM
[10] = RPMI 5 mM glucose + 10% FBS, 15.4 µM
[11] = RPMI 5 mM glucose + 10% FBS, 46.1 µM
[12] = RPMI 5 mM glucose + 10% dialyzed FBS, 0.000781 µM
[13] = RPMI 5 mM glucose + 10% dialyzed FBS, 0.00234 µM
[14] = RPMI 5 mM glucose + 10% dialyzed FBS, 0.00702 µM
[15] = RPMI 5 mM glucose + 10% dialyzed FBS, 0.0211 µM
[16] = RPMI 5 mM glucose + 10% dialyzed FBS, 0.0632 µM
[17] = RPMI 5 mM glucose + 10% dialyzed FBS, 0.19 µM
[18] = RPMI 5 mM glucose + 10% dialyzed FBS, 0.569 µM
[19] = RPMI 5 mM glucose + 10% dialyzed FBS, 1.71 µM
[20] = RPMI 5 mM glucose + 10% dialyzed FBS, 5.12 µM
[21] = RPMI 5 mM glucose + 10% dialyzed FBS, 15.4 µM
[22] = RPMI 5 mM glucose + 10% dialyzed FBS, 46.1 µM
[23] = HPLM + 10% dialyzed FBS, 0.000781 µM
[24] = HPLM + 10% dialyzed FBS, 0.00234 µM
[25] = HPLM + 10% dialyzed FBS, 0.00702 µM
[26] = HPLM + 10% dialyzed FBS, 0.0211 µM
[27] = HPLM + 10% dialyzed FBS, 0.0632 µM
[28] = HPLM + 10% dialyzed FBS, 0.19 µM
[29] = HPLM + 10% dialyzed FBS, 0.569 µM
[30] = HPLM + 10% dialyzed FBS, 1.71 µM
[31] = HPLM + 10% dialyzed FBS, 5.12 µM
[32] = HPLM + 10% dialyzed FBS, 15.4 µM
[33] = HPLM + 10% dialyzed FBS, 46.1 µM

`NC(=O)c1ncn([C@@H]2O[C@H](CO)[C@@H](O)[C@H]2O)c1O` gave a cell viability [1] of 122%, a cell viability [2] of 125% and a cell viability [3] of 114%. The cell viability [4] was 118%, the cell viability [5] was 114% and the cell viability [6] was 136%. It also gave a cell viability [7] of 129%, a cell viability [8] of 127% and a cell viability [9] of 112%. For the same compound, the cell viability [10] was 112%, the cell viability [11] was 117% and the cell viability [12] was 122%. The cell viability [13] was 127%, the cell viability [14] was 115% and the cell viability [15] was 113%. It also gave a cell viability [16] of 106%, a cell viability [17] of 120% and a cell viability [18] of 118%. For the same compound, the cell viability [19] was 103%, the cell viability [20] was 115% and the cell viability [21] was 118%. For the same compound, the cell viability [22] was 112%.
`CON(C)C(=O)N1/N=C(S[C@@]1(CCCN)C2=CC=CC=C2)/C3=CC(=CC=C3F)F` was tested, and the cell viability [23] was 119%, the cell viability [24] was 113% and the cell viability [25] was 117%. For the same compound, the cell viability [26] was 87.5%, the cell viability [27] was 34.4% and the cell viability [28] was 35.8%. For the same compound, the cell viability [29] was 38.6%, the cell viability [30] was 38.1% and the cell viability [31] was 24.6%. The cell viability [32] was 36.3%, the cell viability [33] was 21.6% and the cell viability [1] was 115%. For the same compound, the cell viability [2] was 114%, the cell viability [3] was 133% and the cell viability [4] was 69.4%. For the same compound, the cell viability [5] was 23.8%, the cell viability [6] was 32.3% and the cell viability [7] was 22.3%. The cell viability [8] was 27.6%, the cell viability [9] was 23% and the cell viability [10] was 25.3%. The cell viability [11] was 21.1%.
In the case of `C[C@H]1O[C@H](C[C@H](O)[C@@H]1O)O[C@H]2[C@@H](O)C[C@@H](O[C@@H]2C)O[C@H]3[C@@H](O)C[C@@H](O[C@@H]3C)O[C@H]4CC[C@@]5(C)[C@H](CC[C@@H]6[C@@H]5C[C@@H](O)[C@]7(C)[C@H](CC[C@]67O)C/8=C/C(=O)OC8)C4`, the cell viability [23] is reported as 120%, the cell viability [24] is reported as 119% and the cell viability [25] is reported as 136%. It also gave a cell viability [26] of 138%, a cell viability [27] of 97.2% and a cell viability [28] of 25.3%. It also gave a cell viability [29] of 12.2%, a cell viability [30] of 8.48% and a cell viability [31] of 8.1%. The cell viability [32] was 7.39%, the cell viability [33] was 5.28% and the cell viability [1] was 113%. For the same compound, the cell viability [2] was 112%, the cell viability [3] was 120% and the cell viability [4] was 107%. It also gave a cell viability [5] of 107%, a cell viability [6] of 95.8% and a cell viability [7] of 21.9%. The cell viability [8] was 9.57%, the cell viability [9] was 11% and the cell viability [10] was 12.1%. It also gave a cell viability [11] of 9.59%, a cell viability [12] of 120% and a cell viability [13] of 121%. For the same compound, the cell viability [14] was 109%, the cell viability [15] was 115% and the cell viability [16] was 114%. The cell viability [17] was 57.2%, the cell viability [18] was 13.5% and the cell viability [19] was 7.93%. For the same compound, the cell viability [20] was 7.1%, the cell viability [21] was 7.81% and the cell viability [22] was 7.62%.
For `CNC(=O)Nc1ccc(-c2nc(N3CC4CCC(C3)O4)c3cnn(C4CCC5(CC4)OCCO5)c3n2)cc1`, the cell viability [23] was 101%, the cell viability [24] was 88.6% and the cell viability [25] was 97.2%. It also gave a cell viability [26] of 86.1%, a cell viability [27] of 73% and a cell viability [28] of 75.9%. The cell viability [29] was 70.4%, the cell viability [30] was 63.8% and the cell viability [31] was 63.3%. For the same compound, the cell viability [32] was 57.2%, the cell viability [33] was 51.6% and the cell viability [1] was 108%. For the same compound, the cell viability [2] was 115%, the cell viability [3] was 118% and the cell viability [4] was 99.3%. For the same compound, the cell viability [5] was 91.4%, the cell viability [6] was 81.1% and the cell viability [7] was 74.7%. The cell viability [8] was 73%, the cell viability [9] was 72.2% and the cell viability [10] was 65.1%. For the same compound, the cell viability [11] was 69.8%, the cell viability [12] was 105% and the cell viability [13] was 101%. For the same compound, the cell viability [14] was 84.3%, the cell viability [15] was 79.3% and the cell viability [16] was 77.6%. For the same compound, the cell viability [17] was 68.5%, the cell viability [18] was 71.5% and the cell viability [19] was 62%. The cell viability [20] was 62%, the cell viability [21] was 55.1% and the cell viability [22] was 52.4%.
In the case of `Cc1c(C)c2c(c(C)c1O)CCC(C)(COc1ccc(CC3SC(=O)NC3=O)cc1)O2` (configuration not stated), the cell viability [23] is reported as 122%, the cell viability [24] is reported as 123% and the cell viability [25] is reported as 114%. It also gave a cell viability [26] of 133%, a cell viability [27] of 125% and a cell viability [28] of 126%. It also gave a cell viability [29] of 142%, a cell viability [30] of 138% and a cell viability [31] of 132%. For the same compound, the cell viability [32] was 116% and the cell viability [33] was 125%.
Compound `CC/1=C(/N2[C@H](SC1)[C@H](NC(=O)C(N)C3=CC=CC=C3)C2=O)C(O)=O` (some centres not stated) has a cell viability [23] of 106%, a cell viability [24] of 118% and a cell viability [25] of 118%. It also gave a cell viability [26] of 137%, a cell viability [27] of 135% and a cell viability [28] of 136%. For the same compound, the cell viability [29] was 145%, the cell viability [30] was 152% and the cell viability [31] was 137%. For the same compound, the cell viability [32] was 106%, the cell viability [33] was 141% and the cell viability [12] was 109%. For the same compound, the cell viability [13] was 135%, the cell viability [14] was 123% and the cell viability [15] was 148%. For the same compound, the cell viability [16] was 145%, the cell viability [17] was 132% and the cell viability [18] was 149%. It also gave a cell viability [19] of 137%, a cell viability [20] of 154% and a cell viability [21] of 146%. It also gave a cell viability [22] of 130%.
For `OCCn1cc(-c2cnc3nnn(Cc4ccc5ncccc5c4)c3n2)cn1`, the cell viability [23] was 106%, the cell viability [24] was 104% and the cell viability [25] was 123%. The cell viability [26] was 110%, the cell viability [27] was 102% and the cell viability [28] was 118%. It also gave a cell viability [29] of 92.2%, a cell viability [30] of 103% and a cell viability [31] of 92.1%. The cell viability [32] was 89.7%, the cell viability [33] was 63.2% and the cell viability [1] was 99.4%. For the same compound, the cell viability [2] was 110%, the cell viability [3] was 112% and the cell viability [4] was 99.9%. It also gave a cell viability [5] of 93.2%, a cell viability [6] of 116% and a cell viability [7] of 110%. It also gave a cell viability [8] of 107%, a cell viability [9] of 102% and a cell viability [10] of 105%. The cell viability [11] was 96.5%, the cell viability [12] was 93.3% and the cell viability [13] was 105%. For the same compound, the cell viability [14] was 103%, the cell viability [15] was 112% and the cell viability [16] was 105%. It also gave a cell viability [17] of 91.7%, a cell viability [18] of 97.1% and a cell viability [19] of 103%. The cell viability [20] was 86.8%, the cell viability [21] was 80.6% and the cell viability [22] was 82.2%.
Work on `COc1cccc2c1[C@]13CCN(CC4CC4)[C@H](C2)[C@]1(OC)CCC(=O)C3` yielded a cell viability [23] of 89.7%, a cell viability [24] of 96.5% and a cell viability [25] of 127%. It also gave a cell viability [26] of 121%, a cell viability [27] of 118% and a cell viability [28] of 119%. It also gave a cell viability [29] of 116%, a cell viability [30] of 129% and a cell viability [31] of 122%. The cell viability [32] was 82.2%, the cell viability [33] was 111% and the cell viability [1] was 101%. It also gave a cell viability [2] of 111%, a cell viability [3] of 103% and a cell viability [4] of 124%. It also gave a cell viability [5] of 126%, a cell viability [6] of 117% and a cell viability [7] of 132%. For the same compound, the cell viability [8] was 125%, the cell viability [9] was 133% and the cell viability [10] was 110%. The cell viability [11] was 124%, the cell viability [12] was 106% and the cell viability [13] was 108%. The cell viability [14] was 106%, the cell viability [15] was 111% and the cell viability [16] was 110%. The cell viability [17] was 116%, the cell viability [18] was 109% and the cell viability [19] was 111%. For the same compound, the cell viability [20] was 105%, the cell viability [21] was 106% and the cell viability [22] was 105%.
Work on `C=CCc1ccc(O)c(-c2ccc(O)c(CC=C)c2)c1` yielded a cell viability [23] of 111%, a cell viability [24] of 117% and a cell viability [25] of 112%. The cell viability [26] was 120%, the cell viability [27] was 112% and the cell viability [28] was 94.8%. The cell viability [29] was 90.6%, the cell viability [30] was 93.4% and the cell viability [31] was 84.3%. It also gave a cell viability [32] of 86.8%, a cell viability [33] of 88.7% and a cell viability [1] of 107%. The cell viability [2] was 105%, the cell viability [3] was 119% and the cell viability [4] was 118%. For the same compound, the cell viability [5] was 122%, the cell viability [6] was 112% and the cell viability [7] was 95.3%. It also gave a cell viability [8] of 61%, a cell viability [9] of 51% and a cell viability [10] of 60.4%. It also gave a cell viability [11] of 62.6%, a cell viability [12] of 114% and a cell viability [13] of 106%. For the same compound, the cell viability [14] was 107%, the cell viability [15] was 112% and the cell viability [16] was 119%. For the same compound, the cell viability [17] was 111%, the cell viability [18] was 91.4% and the cell viability [19] was 54.7%. The cell viability [20] was 47.9%, the cell viability [21] was 58.9% and the cell viability [22] was 53.8%.
